Among the data in ChEMBL document CHEMBL4422667, “Synthetic derivatives of the natural product 13-amino 2-desoxy-4-epi-pulchellin inhibit STAT3 signaling and induce G2/M arrest and death of colon cancer cells” (Bioorg Med Chem Lett, 2019) are IC50 and solubility values, retold here.

In brackets after ≈: the same amount, converted by molar mass. Some results are limits rather than exact numbers.

The subject of one data set is HCT-116. Briefly: cells. The following applies: Homo sapiens, HCT-116, 72 h.
The subject of a further data set is HT-29. The data set is described as follows: cells. The following applies: Homo sapiens, HT-29, 72 h.
Data set [1] can be described thus: Aqueous solubility of compound at 25 degC. In kind it is physicochemical. Conditions: water.

Description for HCT-116: Cytotoxicity against human HCT116 cells assessed as reduction in cell viability after 72 hrs by MTT assay
Description for HT-29: Cytotoxicity against human HT-29 cells assessed as reduction in cell viability after 72 hrs by MTT assay

What is called IC50 is the midpoint of a concentration-inhibition curve. A higher IC50 goes with weaker potency in that assay. With `C[C@@H]1C[C@@H]2OC(=O)[C@@H](CN3CCOCC3)[C@H]2C[C@]2(C)[C@@H](O)CC[C@@H]12` (relative stereo), in the data set on HCT-116, the IC50 turned out to be 18.7 µM.
With `C[C@@H]1C[C@@H]2OC(=O)[C@@H](CN3CCN(C)CC3)[C@H]2C[C@]2(C)[C@@H](O)CC[C@@H]12` (relative stereo), in the data set with HCT-116, the IC50 was above 30 µM.
In turn, `C[C@@H]1C[C@@H]2OC(=O)[C@@H](CNCCN(C)C)[C@H]2C[C@]2(C)[C@@H](O)CC[C@@H]12` (mixture of isomers) came in with an IC50 with HCT-116 above 30 µM.
`C[C@@H]1C[C@@H]2OC(=O)[C@@H](CN3CCCCC3)[C@H]2C[C@]2(C)[C@@H](O)CC[C@@H]12` (relative stereo): the IC50 in the data set on HCT-116 was 8.39 µM; in the data set with HT-29 it was 3.86 µM.
For the compound `COC(CNC[C@@H]1C(=O)O[C@H]2C[C@@H](C)[C@@H]3CC[C@H](O)[C@@]3(C)C[C@@H]21)OC` (relative stereo), 27.5 µM corresponded to half-maximal inhibition with HCT-116 (IC50).
With `CCN(CC)C[C@@H]1C(=O)O[C@H]2C[C@@H](C)[C@@H]3CC[C@H](O)[C@@]3(C)C[C@@H]21` (relative stereo), the half-inhibitory concentration (IC50) with HCT-116 came out at 5.46 µM; in the data set with HT-29, 3.45 µM.
As to `CCN(C)C[C@@H]1C(=O)O[C@H]2C[C@@H](C)[C@@H]3CC[C@H](O)[C@@]3(C)C[C@@H]21` (relative stereo), the IC50 stood at 2.4 µM with HCT-116 and 1.62 µM with HT-29.
In turn, `C[C@@H]1C[C@@H]2OC(=O)[C@@H](CNCCCN(C)C)[C@H]2C[C@]2(C)[C@@H](O)CC[C@@H]12` (relative stereo) had an IC50 in the data set with HCT-116 above 30 µM.
On the same count and under the same terms, as for `C[C@@H]1C[C@@H]2OC(=O)[C@@H](CN3CCC(N(C)C)CC3)[C@H]2C[C@]2(C)[C@@H](O)CC[C@@H]12` (relative stereo), the figure is 12.2 µM; as for `CNC[C@@H]1C(=O)O[C@H]2C[C@@H](C)[C@@H]3CC[C@H](O)[C@@]3(C)C[C@@H]21` (relative stereo), above 30 µM; as for `CC(O)CNC[C@@H]1C(=O)O[C@H]2C[C@@H](C)[C@@H]3CC[C@H](O)[C@@]3(C)C[C@@H]21` (mixture of isomers), above 30 µM.
Still for that read-out and setting: under `CCCNC[C@@H]1C(=O)O[C@H]2C[C@@H](C)[C@@H]3CC[C@H](O)[C@@]3(C)C[C@@H]21` (relative stereo) stands above 30 µM; under `CCCCNC[C@@H]1C(=O)O[C@H]2C[C@@H](C)[C@@H]3CC[C@H](O)[C@@]3(C)C[C@@H]21` (relative stereo), above 30 µM; under `CC(C)NC[C@@H]1C(=O)O[C@H]2C[C@@H](C)[C@@H]3CC[C@H](O)[C@@]3(C)C[C@@H]21` (relative stereo), 17.8 µM.
Regarding `C=C1C(=O)O[C@@H]2C3O[C@]3(C)CC/C=C(\C)CC[C@@H]12` (stereo not given in full), the results for the IC50 with HCT-116 and in the data set on HT-29 were 4.94 µM and 3.38 µM, respectively.
On the same counts, the results for `C[C@@H]1C[C@@H]2OC(=O)[C@@H](CN3CCC(O)CC3)[C@H]2C[C@]2(C)[C@@H](O)CC[C@@H]12` (relative stereo) are 5.36 µM and 3.19 µM.
With `C[C@@H]1C[C@@H]2OC(=O)[C@@H](CN(C)C)[C@H]2C[C@]2(C)[C@@H](O)CC[C@@H]12` (relative stereo), the IC50 came to 5.18 µM with HCT-116 and 3.31 µM in the data set on HT-29.
In the case of `CCCCCCNC[C@@H]1C(=O)O[C@H]2C[C@@H](C)[C@@H]3CC[C@H](O)[C@@]3(C)C[C@@H]21` (relative stereo), the IC50 in the data set on HCT-116 was above 30 µM.
On the same count and under the same terms, under `C[C@@H]1C[C@@H]2OC(=O)[C@@H](CN3CCNCC3)[C@H]2C[C@]2(C)[C@@H](O)CC[C@@H]12` (relative stereo) stands 15.5 µM; under `C[C@@H]1C[C@@H]2OC(=O)[C@@H](CNCCN3CCCC3)[C@H]2C[C@]2(C)[C@@H](O)CC[C@@H]12` (relative stereo), 22.8 µM.
In the data set with HCT-116, `C[C@@H]1C[C@@H]2OC(=O)[C@@H](CNCCCO)[C@H]2C[C@]2(C)[C@@H](O)CC[C@@H]12` (relative stereo) came in with a half-inhibitory concentration (IC50) above 30 µM.
As a reminder, the solubility is the dissolved amount per volume that the medium holds. A lower solubility goes with a poorly soluble substance. Take `C=C1C(=O)O[C@H]2C[C@@H](C)[C@@H]3CC[C@H](O)[C@@]3(C)C[C@H]12` [PSEUDOGUAIANOLIDE]: the half-maximal inhibitory concentration (IC50) in the data set with HCT-116 was 4.43 µM; with HT-29, 3.37 µM. Also, the solubility in data set [1] worked out at 200 µg/mL (≈ 799 µM).
